From US7858577B2, “Use of the long pentraxin PTX3 for the treatment of diseases caused by an altered activation of the growth factor FGF-2” (Sigma-Tau Industrie Farmaceutiche Riunite S.p.A., priority 2000, dated 2010)

Tests used:
[1] = target: T1, interaction between 125I-FGF-2 and plastic immobilised PTX3 (Homo sapiens, UniProt P09038+P26022); assay: 125I-FGF-2 binding to plastic immobilised PTX3 in the presence of an excess of competitor; settings: excess of competitor: FGF-2 or Cytocrome C 100 nM, soluble PTX3 300 nM
T1 construct: made in house
Method: 96 wells plates were coated at 4° C. with 100 μl of NaHCO3 pH 9.6 containing PTX3 or C reactive protein (200 nM) or alternatively 2 μg/ml of the following proteins used as negative control: bovine serum albumin, fibronectin, gelatine or laminin. After incubation, wells were washed 3 times with PBS and blocked 2 h at room temperature with 200 μl of 1 mg/ml of BSA in PBS. At the end of incubation wells were washed 3 times with PBS and subsequently incubated with 30 ng of ^125I-FGF-2 for 2 h at room temperature. Wells were subsequently washed 3 times with PBS and bound ^125I-FGF-2 was recovered by washing each well twice with 200 μl of 2% SDS in water. Levels of ^125I-FGF-2 were measured in a gamma counter.
In a second set of experiments the binding of ^125I-FGF-2 to plastic immobilised PTX3 has been tested in the presence of an excess of both native or heat denatured cold FGF-2 (100 nM), in the presence of similar Cytocrome C concentrations or in the presence of an excess of soluble PTX3 (300 nM).

[2] = target: T2, FGF-2 (Homo sapiens, UniProt P09038); assay: Dissociation constant (Kd) of FGF-2/PTX3 interaction, Scatchard plot; format: binding; settings: increasing doses of 125I-FGF-2 on plastic immobilised PTX3, Scatchard plot
T2 construct: made in house
Method: With this experiment the dissociation constant (Kd) FGF-2/PTX3 interaction has been determined. For this purpose increasing doses of ^125I-FGF-2 were incubated with plastic immobilised PTX3 and binding results were analysed by Scatchard plot. […] This affinity is similar to the affinity previously calculated for the interaction of PTX3 with its physiological ligand C1q.

[3] = tested on: low affinity receptors (HSPGs) on GM7373 cells; assay: Effect of PTX3 on 125I-FGF-2 binding to low affinity receptors on endothelial cells; format: cell-based, bovine; settings: 125I-FGF-2 10 ng/ml, 2 h at 4° C., increasing concentrations of PTX3
Method: Transformed foetal bovine aortic endothelial cells GM7373 were seeded at 80,000 cells/cm^2 in 24-well dishes in Eagle's minimal essential medium (Eagle's MEM) containing 10% FCS. After 24 h at 37° C. adherent cells were washed twice with Eagle's MEM without FCS and subsequently incubated for 2 h at 4° C. with ^125I-FGF-2 (10 ng/ml) in Eagle's MEM containing 0.15% gelatine and 20 mM HEPES pH 7.5 in the absence or in the presence of increasing concentrations of PTX3. At the end of incubation the amount of ^125I-FGF-2 bound to low (HSPGs) and high affinity receptors (FGFR) was evaluated as described by Moscatelli, 1987 J. Cell. Physiol. 131:123-30. Briefly cells were rinsed twice with 2 M NaCl in 20 mM HEPES buffer (pH 7.5) to remove ^125I-FGF-2 bound to low-affinity binding sites and twice with 2 M NaCl in 20 mM sodium acetate (pH 4.0) to remove ^125I-FGF-2 bound to high-affinity binding sites. Non-specific binding was measured in the presence of a 100-fold molar excess of unlabeled FGF-2 and subtracted from all the values.

[4] = tested on: GM 7373 cells; assay: Effect of PTX3 on proliferation induced by other mitogens (FCS, DAG, TPA, EGF, VEGF); format: cell-based, bovine; settings: 10% FCS, 5 μg/ml DAG, 10 ng/ml TPA, 30 ng/ml EGF or 30 ng/ml VEGF
Method: GM 7373 cells were seeded at 75,000 cells/cm^2 in 48-well plates in Eagle MEM containing 10% FCS. After 24 h at 37° C. adherent cells were washed twice with Eagle's MEM without FCS and subsequently incubated for 24 h at 37° C. in Eagle's MEM containing 0.4% FCS in the absence or in the presence of FGF-2 (10 ng/ml) and increasing concentrations of PTX3. At the end of incubation cells were trypsinized and counted. In a different set of experiments GM 7373 cells were treated as described above in the presence of different mitogenic stimuli: 10% FCS; 5 μg/ml dyacyl-glycerol (DAG); 10 ng/ml phorbol ester (TPA) 30 ng/ml epidermal growth factor (EGF) or 30 ng/ml vascular endothelial growth factor (VEGF). Results reported in FIG. 7 shown that PTX3 inhibits the mitogenic activity exerted on endothelial cells by FGF-2 in a dose-dependent manner with an ID50 equal to 30 nM. This value is similar to the Kd calculated for the interaction FGF-2-PTX3.

[5] = tested on: neovascularization induced in vivo by FGF-2; assay: Chick embryo chorioallantoic membrane (CAM) assay, neovascularization induced by FGF-2; settings: gelatin sponge, FGF-2 500 ng/sponge, PTX3 5 ug/sponge, scored after 4 days
Method: The antiangiogenic potential of PTX3 was evaluated in vivo in the chick embryo chorioallantoic membrane (CAM) assay. Briefly, a window was opened in the egg shell of 3 day-old fertilized chicken eggs. At day 8, gelatin sponges were implanted on the CAMs and adsorbed with 10 ul of PBS alone or containing FGF-2 (at 500 ng/sponge) in the absence or in the presence of PTX3 (5 ug/sponge) (5-6 embryos per group).

[6] = tested on: FGF2MAE3F2T cells; assay: Proliferation of FGF2MAE3F2T clones over-expressing PTX3; format: cell-based, murine; settings: clones transfected with human PTX3 full length cDNA (pLXSH) vs parental cells, 0.4% FCS
Method: Murine endothelial cells overexpressing FGF-2, named FGF2MAE3F2T (Gualandris et al. 1996, Cell Growth Diff. 7:147-60) were transfected with human PTX3 full length cDNA subcloned in the commercial expression vector pLXSH (Clontech).
In vitro studies on the transfected cell lines obtained were, performed to study the effect of PTX3 over-expression on FGF-2-dependent proliferation of FGF2MAE3F2T cells and their invasive behaviour on three-dimensional fibrin gels.
After 24 h at 37° C., adherent cells were washed twice with DMEM without FCS and incubated for different period of time at 37° C. in DMEM containing 0.4% FCS. At the end of incubations cells were trypsinized and counted in a Burker chamber.

T2 sequence (P09038 134-288): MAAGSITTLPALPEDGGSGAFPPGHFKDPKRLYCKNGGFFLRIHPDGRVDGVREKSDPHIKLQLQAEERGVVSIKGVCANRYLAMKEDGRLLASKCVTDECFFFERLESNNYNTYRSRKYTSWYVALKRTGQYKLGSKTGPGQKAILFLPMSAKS
T1 sequence (P09038 134-288): as above
T1 sequence (P26022 18-381): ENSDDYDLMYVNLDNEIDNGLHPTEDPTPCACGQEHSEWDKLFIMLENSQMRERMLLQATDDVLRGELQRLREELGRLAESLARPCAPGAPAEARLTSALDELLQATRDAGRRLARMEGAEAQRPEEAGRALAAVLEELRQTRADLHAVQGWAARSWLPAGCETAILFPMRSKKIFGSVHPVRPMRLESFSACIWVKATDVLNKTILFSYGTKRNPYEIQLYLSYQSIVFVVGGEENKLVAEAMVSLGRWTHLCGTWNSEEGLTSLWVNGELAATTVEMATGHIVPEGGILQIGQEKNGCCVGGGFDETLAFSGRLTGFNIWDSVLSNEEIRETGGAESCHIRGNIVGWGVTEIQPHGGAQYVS

PTX3: long pentraxin PTX3; preferred is human PTX3, sequence described in WO99/32516; produced as by Bottazzi et al. 1997
inhibition of the interaction between 125I-FGF-2 and plastic immobilised PTX3 [1]: inhibited the interaction | Kd [2]: 8 to 16 nM | inhibition of FGF-2 binding to low-affinity receptors on endothelial cells [3]: able to inhibit in a dose-dependent manner | inhibitory activity when other mitogens are used to induce cellular proliferation [4]: not detectable | effect on neovascularization induced in vivo by FGF-2 (angiogenic response score 0-4+) [5]: able to block the neovascularization | effect of PTX3 over-expression on FGF2MAE3F2T cells proliferation [6]: inhibits FGF2MAE3F2T cells proliferation
